Measurements as given in ChEMBL document CHEMBL1152564, “Antagonists of the human A(2A) receptor. Part 6: Further optimization of pyrimidine-4-carboxamides” (Bioorg Med Chem, 2009).

Experiments:
Assay type in all cases: ADME, organism-based
[1] = Volume of distribution in rat; conditions: in vivo
[2] = Oral bioavailability in rat; conditions: in vivo
[3] = Terminal half life in rat; conditions: in vivo, read-out: beta t1/2 (converted)
[4] = Tmax in rat plasma
[5] = Clearance in rat; conditions: in vivo

Cc1cccc(CNC(=O)c2cc(-c3ccc(C)o3)nc(N)n2)n1
Vd [1]: 0.7 L/kg | bioavailability [2]: 3% | half-life [3]: 3 h | Tmax [4]: 0.25 h | clearance [5]: 32.5 mL/min/kg
